Source: ChEMBL document CHEMBL1799939, “Synthesis and biological evaluation of novel thiazolidinedione analogues as 15-hydroxyprostaglandin dehydrogenase inhibitors” (J Med Chem, 2011)
Values belong to the compound of their own block, whether it stands above or below them. Active and inactive are the calls of the source. The calls are words filed in the database; no cut-off is given here.

Legend:
[1] = test system: A549; test: Induction of PGT expression in human A549 cells at 5 uM after 25 hrs by RT-PCR analysis; format: functional, cell-based
[2] = biological target: T1, 15-hydroxyprostaglandin dehydrogenase [NAD(+)] (Homo sapiens, UniProt P15428); test: Inhibition of human 15-PGDH expressed in Escherichia coli using PGE2 as substrate and NAD+ as coenzyme assessed as formation of NADH by spectrophotometric analysis
T1 sequence (P15428 whole entry): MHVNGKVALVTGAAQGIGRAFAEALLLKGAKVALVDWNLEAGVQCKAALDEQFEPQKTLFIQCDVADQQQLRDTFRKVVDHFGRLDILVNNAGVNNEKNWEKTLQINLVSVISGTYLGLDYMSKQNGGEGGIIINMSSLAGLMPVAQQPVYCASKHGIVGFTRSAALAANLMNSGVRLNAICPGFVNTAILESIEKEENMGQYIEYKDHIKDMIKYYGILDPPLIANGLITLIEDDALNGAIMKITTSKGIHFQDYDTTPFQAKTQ

[3] = test system: A549; test: Inhibition of COX1 expression in human A549 cells at 5 uM after 25 hrs by RT-PCR analysis; format: functional, cell-based
[4] = test system: A549; test: Effect on COX2 expression in human A549 cells at 5 uM after 25 hrs by RT-PCR analysis; format: functional, cell-based
[5] = test system: A549; test: Effect on MRP4 expression in human A549 cells at 5 uM after 25 hrs by RT-PCR analysis; format: functional, cell-based
[6] = biological target: T2, 15-hydroxyprostaglandin dehydrogenase [NAD(+)] (Homo sapiens) (UniProt P15428); test: Inhibition of human 15-PGDH in human A549 cells assessed as increase in IL1-beta stimulated PGE2 production at 5 uM after 5 hrs by enzyme immunoassay; format: cell-based
T2 sequence (whole entry): T1 sequence (P15428 whole entry)

[7] = biological target: T2, 15-hydroxyprostaglandin dehydrogenase [NAD(+)] (Homo sapiens); test: Inhibition of human 15-PGDH in human A549 cells assessed as increase in IL1-beta stimulated PGE2 production after 5 hrs by enzyme immunoassay; format: cell-based
[8] = test system: Cavia porcellus; test: Increase in cochlear blood flow in guinea pig at 10 ug, iv measured after 40 mins; format: functional
[9] = test system: Cavia porcellus; test: Increase in cochlear blood flow in guinea pig at 20 ug, iv measured after 50 mins; format: functional
[10] = test system: HaCaT; test: Wound healing activity in human HaCaT cells assessed as re-epithelialization at 5 uM after 48 hrs by inverted microscopic analysis relative to control; format: functional, cell-based

- IC50 [2]: 8 nM
- Activity [6]: Active
Compound: O=C1N=C(O)S/C1=C\c1ccc(OCCC2CCCCC2)c(Cl)c1
- Activity [1]: Active
- Activity [3]: Active
- Activity [4]: inactive
- Activity [5]: inactive

- IC50 [2]: 24 nM
Compound: O=C1N=C(O)S/C1=C\c1ccc(OCCCCC2CCCCC2)c(Cl)c1

- Activity [6]: Active
Compound: O=C1N=C(O)S/C1=C\c1ccc(OCCC2CCCCC2)cc1

- IC50 [2]: 28 nM
Compound: O=C1NC(=O)/C(=C/c2ccc(OCC3CCCCC3)c(Cl)c2)S1

- IC50 [2]: 47 nM
Compound: O=C1NC(=O)/C(=C/c2ccc(OC3CCCCC3)c(Cl)c2)S1

- Activity [7]: Dose-dependent effect
- IC50 [2]: > 50000 nM
Compound: COc1cc(/C=C2\SC(=O)N(C)C2=O)ccc1OCCC1CCCCC1

- Activity [7]: Dose-dependent effect
- IC50 [2]: 25 nM
- Activity [6]: Active
Compound: COc1cc(/C=C2\SC(=O)NC2=O)ccc1OCCC1CCCCC1
- Activity [8]: 22%
- Activity [1]: Active
- Activity [3]: Active
- Activity [4]: inactive
- Activity [5]: inactive
- Activity [9]: 65%

- IC50 [2]: 10 nM
Compound: O=C1N=C(O)S/C1=C\c1ccc(OCCCC2CCCCC2)c(Cl)c1

- IC50 [2]: 19 nM
- Activity [6]: Active
Compound: O=C1N=C(O)S/C1=C\c1ccc(OCCC2CCCCC2)c(Br)c1
- Activity [10]: Active
